Measured values: PMC3892053, “Pharmacokinetic/pharmacodynamic modeling for the determination of a cimicoxib dosing regimen in the dog” (BMC Veterinary Research, 2013)
Like-named read-outs stand apart in the source and are kept apart here.

Experiment: Plasma half-life after oral administration in four dog breeds (Study 2)
Format: in vivo
Details: both sexes, 2 mg/kg
Procedure: Four different sized-breeds from four different private breeders were tested (ten individuals were used from each breed): Anglo-French Hounds, Pointers, Cavalier King Charles Spaniels and Bernese Mountain Dogs. The bodyweights of the dogs ranged between [27.2, 37.4], [16.8, 22.3], [7, 9.8], [44.5, 62.5] kg; the ages were [0.6, 2.5], [1.9, 11.8], [1.7, 6.7], [1.4, 6.4] years for the Anglo-French Hounds, Pointers, Cavalier King Charles Spaniels and Bernese Mountain Dogs breeds, respectively. The sex ratios (male/female) were 5/5, 6/4, 4/6 and 4/6 for these same breeds. Prior to the experiment, all the animals underwent a clinical examination by a veterinarian, along with a complete biochemistry profile. No clinically important abnormality was noted during these examinations.
The half-life of elimination of cimicoxib was studied in four different sized breeds (40 dogs). Two mg/kg of cimicoxib was administered orally, in the form of 10 and 20 mg (hard gelatin capsules, Vetoquinol). For each dog, four blood samples (5 mL, heparinized tubes) were taken, at 6 h, 8 h, 10 h and 24 h after administration of cimicoxib, centrifuged (3000 G) and stored (- 20°C).
Plasma samples were analyzed by a High Performance Liquid Chromatography (HPLC) method using ultraviolet (UV) detection. Briefly, an internal standard (UR-8877) and cimicoxib (UR-8880) were extracted from plasma by a solid liquid (methanol) extraction process using HLB Oasis cartridges (Waters). The extraction yield was about 90%. The HPLC apparatus consists of a pump system equipped with an automatic injector and an UV detector (242 nm). […] The mobile phase was a mixture of 0.65 L of ultra-pure water and 0.35 L of acetonitrile which was delivered at a flow rate of 1 mL per min. Under these conditions, cimicoxib (UR-8880) and the internal standard (UR-8877) were eluted at retention times of 6 to 7 min and 10 to 11 min, respectively. The method was linear over the calibration range of 0.01 to 5 μg/mL using a linear model weighted by 1/X^2. Within-day and day-to-day coefficients of variation were less than 9% and the accuracy ranged from 94 to 103%, indicating an appropriate precision and accuracy for the analytical method. The lack of interference from endogenous compounds was verified on blank plasma from untreated dogs, establishing the specificity of the method. The validated limit of quantification was 0.01 μg/mL.
Half-life was estimated by log-linear regression (estimating the slope) using the non-compartmental approach implemented in Winnonlin.

half-life (Anglo-French hound, po, oral 2 mg/kg, Anglo-French hounds (n = 10), read-out: plasma half-life, Maximum (converted)): 4 h | half-life (Anglo-French hound, po, oral 2 mg/kg, Anglo-French hounds (n = 10), read-out: plasma half-life, Mean (converted)): 3.2 h | half-life (Anglo-French hound, po, oral 2 mg/kg, Anglo-French hounds (n = 10), read-out: plasma half-life, Minimum (converted)): 2 h | half-life (Bernese mountain dog, po, oral 2 mg/kg, Bernese mountain dogs (n = 10), read-out: plasma half-life, Maximum (converted)): 5.8 h | half-life (Bernese mountain dog, po, oral 2 mg/kg, Bernese mountain dogs (n = 10), read-out: plasma half-life, Mean (converted)): 4.4 h | half-life (Bernese mountain dog, po, oral 2 mg/kg, Bernese mountain dogs (n = 10), read-out: plasma half-life, Minimum (converted)): 3.2 h | half-life (Cavalier King Charles spaniel, po, oral 2 mg/kg, Cavalier King Charles spaniels (n = 10), read-out: plasma half-life, Maximum (converted)): 3.5 h | half-life (Cavalier King Charles spaniel, po, oral 2 mg/kg, Cavalier King Charles spaniels (n = 10), read-out: plasma half-life, Mean (converted)): 2.7 h | half-life (Cavalier King Charles spaniel, po, oral 2 mg/kg, Cavalier King Charles spaniels (n = 10), read-out: plasma half-life, Minimum (converted)): 1.9 h | half-life (Pointer, po, oral 2 mg/kg, Pointers (n = 10), read-out: plasma half-life, Maximum (converted)): 5.9 h | half-life (Pointer, po, oral 2 mg/kg, Pointers (n = 10), read-out: plasma half-life, Mean (converted)): 3.9 h | half-life (Pointer, po, oral 2 mg/kg, Pointers (n = 10), read-out: plasma half-life, Minimum (converted)): 2.5 h | half-life (oral, the 40 dogs of four breeds, as summarised in Discussion, read-out: terminal half-life): 2 to 4 h
SMILES: COc1ccc(-c2c(Cl)ncn2-c2ccc(S(N)(=O)=O)cc2)cc1F [cimicoxib]
